Patent US20260248918A1, “COMPOSITIONS AND METHODS OF SUPPRESSING AVERSIVENESS OF PHARMACEUTICALS AND INGESTIBLE MATERIALS” (Monell Chemical Senses Center, priority 2019, published 2026)

Experiments:
human subjects = assay: Human sensory testing (gLMS) of API bitterness with blocker, as pre-rinse or admixture; type: in vivo
Description: Methods of evaluating the sensory properties of the API and admixtures with the blocker compounds of Formula A are adopted from Breslin PA, and Tharp CD, “Reduction of saltiness and bitterness after a chlorhexidine rinse,” Chem Senses. 2001 February; 26(2):105-16. More details are illustrated below.
Subjects participate in the study after providing informed consent. Gender of the subjects is balanced between male and female. The subjects are adults with ages ranging from 20 years old to 50 years old. […] The participants are asked to refrain from eating, drinking, or chewing gum for 1 hr prior to testing. Subjects are trained to use the General Labeled Magnitude Scale (gLMS) following standard published procedures. See. e.g., Breslin P A, and Tharp C D. “Reduction of saltiness and bitterness after a chlorhexidine rinse,” Chem Senses. 2001 February; 26(2): 105-16; Keast and Breslin, “Bitterness suppression with zinc sulfate and Na-cyclamate: a model of combined peripheral and central neural approaches to flavor modification.” Pharm Res. 2005 November; 22(11):1970-7. Epub 2005 Aug. 26; Green et al, “Evaluating the ‘Labeled Magnitude Scale’ for measuring sensations of taste and smell.” Chem Senses. 1996 June; 21(3):323-34; Barry G. Green, et al, “Derivation and evaluation of a semantic scale of oral sensation magnitude with apparent ratio properties,” Chemical Senses, Volume 18, Issue 6, 1 Dec. 1993, Pages 683-702; and Bartoshuk L M, “Comparing sensory experiences across individuals: recent psychophysical advances illuminate genetic variation in taste perception.” Chem Senses. 2000 August; 25(4):447-60.
The selected API (in racemic or L form as applicable) is diluted/dissolved in deionized (di) filtered water upon use into various concentrations. […] The API is prepared and dissolved in deionized filtered water or in […] 6-methylflavone to a final concentration. All solutions are stored on ice or at 4° C. to 8° C. and brought up to room temperature prior to testing.
The following testing protocol is performed. The tested solutions are provided to the subjects in random order. Subjects rinsed with di water at least four times over a 2-minute period prior to tasting each solution. The subjects are instructed to wear nose clips to eliminate olfactory input, pour the whole solution in their mouth for 3-5 seconds, and rate the perceived sensation (including bitterness, sourness, astringency, burning, stinging and nausea) intensity of the solution while it remained in the mouth, prior to expectorating. Taste intensity is recorded on a computerized gLMS, analyzed and plotted.

[1] = system: Gamma-aminobutyric acid A receptor alpha; conditions: in vitro; cited from earlier work
glucocorticoid receptor = biological target: T1, glucocorticoid receptor (Homo sapiens, UniProt P04150); conditions: human MDA-kb2 cells; cited from earlier work
T1 construct: glucocorticoid receptor in human MDA-kb2 cells; endogenous in cells; host or cells: MDA-kb2
T1 sequence (P04150 1-777): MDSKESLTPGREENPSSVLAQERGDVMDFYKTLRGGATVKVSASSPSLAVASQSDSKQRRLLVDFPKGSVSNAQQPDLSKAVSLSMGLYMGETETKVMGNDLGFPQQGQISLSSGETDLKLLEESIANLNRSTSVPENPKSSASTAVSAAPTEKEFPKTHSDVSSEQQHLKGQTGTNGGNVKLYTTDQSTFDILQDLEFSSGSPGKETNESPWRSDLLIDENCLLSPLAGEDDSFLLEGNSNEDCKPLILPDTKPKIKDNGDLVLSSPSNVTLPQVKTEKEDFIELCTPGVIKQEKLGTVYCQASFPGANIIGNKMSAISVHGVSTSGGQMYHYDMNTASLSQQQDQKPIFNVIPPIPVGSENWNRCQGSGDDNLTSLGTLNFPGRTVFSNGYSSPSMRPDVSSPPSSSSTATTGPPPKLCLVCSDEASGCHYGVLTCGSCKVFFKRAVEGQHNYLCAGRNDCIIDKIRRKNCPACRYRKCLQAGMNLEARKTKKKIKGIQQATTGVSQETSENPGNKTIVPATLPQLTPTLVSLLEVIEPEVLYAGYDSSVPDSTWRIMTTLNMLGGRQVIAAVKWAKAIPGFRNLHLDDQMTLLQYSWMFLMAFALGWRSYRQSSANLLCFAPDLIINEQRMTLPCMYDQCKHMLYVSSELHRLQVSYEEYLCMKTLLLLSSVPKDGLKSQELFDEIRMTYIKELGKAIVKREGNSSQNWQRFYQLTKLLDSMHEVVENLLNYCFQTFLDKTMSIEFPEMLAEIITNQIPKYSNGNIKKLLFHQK

Cc1ccc2oc(-c3ccccc3)cc(=O)c2c1 [6-methylflavone]
Blocking the bitter taste of piperaquine and TAF (human subjects; admixture, subset of human subjects): effective antagonist
Suppression of TAF bitterness (human subjects; another subject, FIGS. 11A/11B, 0.5 mg/mL TAF, pre-rinse then admixture, blocker 100 μM): worked
Suppression of TAF bitterness (human subjects; another subject, FIGS. 11A/11B, 0.5 mg/mL TAF, pre-rinse then admixture, blocker 1 mM): worked even better
Suppression of TAF bitterness (human subjects; one subject, FIGS. 8A/8B, 0.5 mg/mL TAF with and without 100 μM blocker): significant suppression
Suppression of TAF bitterness (human subjects; one subject, FIGS. 9A/9B, 0.5 mg/mL TAF alone vs pre-rinse vs pre-rinse containing 100 μM blocker): did not show significant suppression
Suppression of TAF bitterness (human subjects; one subject, FIGS. 10A/10B, 0.5 mg/mL TAF, pre-rinse then admixture, blocker 100 μM): no bitterness suppression
Average perceived bitterness intensity of piperaquine (human subjects; piperaquine 8 mg/mL treated with 100 μM blocker, FIG. 6): affected
Blocking effect for TAF and piperaquine with added pre-rinse (human subjects; pre-rinse with the blocker added, compared with admixture alone): stronger
Inhibition of [3H]-Ro-15-1788 binding [1]: has the ability to inhibit
Antagonist activity at glucocorticoid receptor (glucocorticoid receptor): antagonist activity
